The ΔTm is the change in melting temperature against a reference sample.

Results on three compounds are retold here after article PMC11851430, “Workflow for E3 Ligase Ligand Validation for PROTAC Development” (ACS Chemical Biology, 2025).

What all share (experiment): DSF assay
What all share (format): binding
Holding throughout (conditions): 20 µM compound
A general note: DSF heats the sample and reads unfolding from a dye or from intrinsic fluorescence.

One assay has as its target T1, CAMK1GA (Homo sapiens, UniProt Q96NX5).
T1 construct: purchased in-house DSF panel (SGC-style construct names; the trailing A/B is a construct suffix)

A further assay has as its target T2, CAMK2BA (Homo sapiens, UniProt Q13554).
T2 construct: purchased in-house DSF panel (SGC-style construct names; the trailing A/B is a construct suffix)

For a further assay, the target named is T3, CLK1 (Homo sapiens, UniProt P49759).
T3 construct: purchased in-house DSF panel (SGC-style construct names; the trailing A/B is a construct suffix)

The target in the next assay is T4, FESA (Homo sapiens, UniProt P07332).
T4 construct: purchased in-house DSF panel (SGC-style construct names; the trailing A/B is a construct suffix)

Another assay has as its target T5, MAP2K6A (Homo sapiens, UniProt P52564).
T5 construct: purchased in-house DSF panel (SGC-style construct names; the trailing A/B is a construct suffix)
T5 sequence (P52564 1-334): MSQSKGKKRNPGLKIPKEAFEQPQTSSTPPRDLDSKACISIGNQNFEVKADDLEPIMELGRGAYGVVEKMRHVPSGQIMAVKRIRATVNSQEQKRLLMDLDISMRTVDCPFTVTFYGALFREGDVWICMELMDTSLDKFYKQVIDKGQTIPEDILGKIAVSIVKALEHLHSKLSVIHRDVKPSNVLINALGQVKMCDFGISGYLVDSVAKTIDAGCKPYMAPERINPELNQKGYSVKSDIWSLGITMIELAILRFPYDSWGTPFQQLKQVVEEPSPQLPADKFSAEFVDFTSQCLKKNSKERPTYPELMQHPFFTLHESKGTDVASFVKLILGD

The target of another assay is T6, MAPK6 (Homo sapiens, UniProt Q16659).
T6 construct: purchased in-house DSF panel (SGC-style construct names; the trailing A/B is a construct suffix)

In a further assay the target is T7, NEK1A (Homo sapiens, UniProt Q96PY6).
T7 construct: purchased in-house DSF panel (SGC-style construct names; the trailing A/B is a construct suffix)
T7 sequence (Q96PY6 1-328): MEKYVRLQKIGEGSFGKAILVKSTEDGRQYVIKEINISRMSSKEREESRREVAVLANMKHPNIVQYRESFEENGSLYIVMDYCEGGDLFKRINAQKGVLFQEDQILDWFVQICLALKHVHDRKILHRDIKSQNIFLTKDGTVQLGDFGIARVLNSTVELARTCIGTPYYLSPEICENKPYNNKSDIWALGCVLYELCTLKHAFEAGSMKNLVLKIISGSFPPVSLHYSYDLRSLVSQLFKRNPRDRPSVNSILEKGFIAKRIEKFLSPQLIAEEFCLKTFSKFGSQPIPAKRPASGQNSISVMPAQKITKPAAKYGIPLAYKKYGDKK

A further assay concerns the target T8, STK10A (Homo sapiens, UniProt O94804).
T8 construct: purchased in-house DSF panel (SGC-style construct names; the trailing A/B is a construct suffix)

In the next assay the target is T9, STK39A (Homo sapiens, UniProt Q9UEW8).
T9 construct: purchased in-house DSF panel (SGC-style construct names; the trailing A/B is a construct suffix)

The next assay deals with T10, TLK1A (Homo sapiens, UniProt Q9UKI8).
T10 construct: purchased in-house DSF panel (SGC-style construct names; the trailing A/B is a construct suffix)
T10 sequence (Q9UKI8 456-734): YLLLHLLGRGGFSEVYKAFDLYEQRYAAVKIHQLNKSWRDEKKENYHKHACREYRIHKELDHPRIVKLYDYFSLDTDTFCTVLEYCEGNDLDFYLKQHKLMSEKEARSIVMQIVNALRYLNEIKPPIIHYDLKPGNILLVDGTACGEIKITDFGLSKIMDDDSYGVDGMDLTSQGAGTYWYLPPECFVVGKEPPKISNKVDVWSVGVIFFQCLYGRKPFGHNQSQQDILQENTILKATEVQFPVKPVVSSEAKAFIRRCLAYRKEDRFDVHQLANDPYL

Another assay has as its target T11, TTK1A (Homo sapiens, UniProt P33981).
T11 construct: purchased in-house DSF panel (SGC-style construct names; the trailing A/B is a construct suffix)
T11 sequence (P33981 519-808): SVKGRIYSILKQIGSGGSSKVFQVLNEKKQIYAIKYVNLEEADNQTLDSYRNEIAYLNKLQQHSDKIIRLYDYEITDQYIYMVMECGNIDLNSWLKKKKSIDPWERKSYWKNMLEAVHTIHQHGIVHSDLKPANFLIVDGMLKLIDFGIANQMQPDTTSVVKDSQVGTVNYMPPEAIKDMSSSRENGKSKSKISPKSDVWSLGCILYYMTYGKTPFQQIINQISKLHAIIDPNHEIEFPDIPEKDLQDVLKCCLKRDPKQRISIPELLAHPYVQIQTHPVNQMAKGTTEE

T6 sequence (Q16659 9-327): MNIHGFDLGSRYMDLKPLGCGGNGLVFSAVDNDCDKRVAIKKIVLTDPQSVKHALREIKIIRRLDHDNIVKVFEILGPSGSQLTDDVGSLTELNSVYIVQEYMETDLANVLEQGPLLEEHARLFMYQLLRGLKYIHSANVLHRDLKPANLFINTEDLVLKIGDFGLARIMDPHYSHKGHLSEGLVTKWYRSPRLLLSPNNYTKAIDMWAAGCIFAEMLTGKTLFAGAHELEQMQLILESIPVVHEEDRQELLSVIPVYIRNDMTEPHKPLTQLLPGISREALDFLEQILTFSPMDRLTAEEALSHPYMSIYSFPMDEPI
T4 sequence (P07332 whole entry): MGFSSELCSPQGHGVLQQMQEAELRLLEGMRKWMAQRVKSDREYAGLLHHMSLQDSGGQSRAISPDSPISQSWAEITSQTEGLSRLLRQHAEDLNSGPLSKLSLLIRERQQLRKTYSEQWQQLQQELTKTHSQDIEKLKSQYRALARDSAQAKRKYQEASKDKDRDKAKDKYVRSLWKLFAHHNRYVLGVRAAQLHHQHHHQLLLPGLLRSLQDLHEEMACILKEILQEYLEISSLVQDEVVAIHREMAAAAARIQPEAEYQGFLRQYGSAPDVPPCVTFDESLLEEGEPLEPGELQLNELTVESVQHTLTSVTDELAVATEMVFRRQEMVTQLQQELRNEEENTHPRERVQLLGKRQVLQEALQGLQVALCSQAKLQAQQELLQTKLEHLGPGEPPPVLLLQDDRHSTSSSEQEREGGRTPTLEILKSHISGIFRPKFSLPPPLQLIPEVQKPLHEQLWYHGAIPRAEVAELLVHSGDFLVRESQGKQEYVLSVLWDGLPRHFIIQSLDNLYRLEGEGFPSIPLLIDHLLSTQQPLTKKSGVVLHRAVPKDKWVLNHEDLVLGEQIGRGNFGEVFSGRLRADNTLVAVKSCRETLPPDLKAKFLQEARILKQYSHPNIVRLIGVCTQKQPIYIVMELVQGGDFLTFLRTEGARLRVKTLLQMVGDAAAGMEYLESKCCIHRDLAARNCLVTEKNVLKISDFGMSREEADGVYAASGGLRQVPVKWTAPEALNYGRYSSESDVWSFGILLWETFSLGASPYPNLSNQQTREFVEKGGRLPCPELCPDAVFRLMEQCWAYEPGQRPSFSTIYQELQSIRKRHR
T3 sequence (P49759 148-484): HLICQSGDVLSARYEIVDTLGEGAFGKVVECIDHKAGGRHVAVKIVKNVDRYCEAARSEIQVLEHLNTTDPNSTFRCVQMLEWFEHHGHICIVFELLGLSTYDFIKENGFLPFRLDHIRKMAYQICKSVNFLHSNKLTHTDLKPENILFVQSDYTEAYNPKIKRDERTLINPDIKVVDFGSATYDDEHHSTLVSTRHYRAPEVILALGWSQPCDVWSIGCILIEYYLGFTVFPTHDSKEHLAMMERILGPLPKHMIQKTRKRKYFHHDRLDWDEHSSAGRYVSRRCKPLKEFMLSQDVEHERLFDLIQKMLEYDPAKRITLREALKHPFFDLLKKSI
T8 sequence (O94804 18-317): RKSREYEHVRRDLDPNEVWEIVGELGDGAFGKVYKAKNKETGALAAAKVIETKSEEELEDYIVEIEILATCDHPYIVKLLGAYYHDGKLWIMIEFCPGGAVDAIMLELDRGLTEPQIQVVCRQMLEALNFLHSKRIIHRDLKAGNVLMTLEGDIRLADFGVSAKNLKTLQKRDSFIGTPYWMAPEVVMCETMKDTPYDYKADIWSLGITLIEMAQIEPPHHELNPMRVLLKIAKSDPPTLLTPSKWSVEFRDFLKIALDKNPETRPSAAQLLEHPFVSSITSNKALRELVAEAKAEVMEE
T2 sequence (Q13554 11-303): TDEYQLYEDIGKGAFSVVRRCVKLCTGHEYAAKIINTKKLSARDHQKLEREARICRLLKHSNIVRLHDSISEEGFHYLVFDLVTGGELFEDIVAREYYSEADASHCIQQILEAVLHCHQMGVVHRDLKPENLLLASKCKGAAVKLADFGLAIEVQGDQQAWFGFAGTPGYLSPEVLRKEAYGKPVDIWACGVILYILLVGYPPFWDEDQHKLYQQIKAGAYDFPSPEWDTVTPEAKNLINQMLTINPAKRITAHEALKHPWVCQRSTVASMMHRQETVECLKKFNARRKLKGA
T1 sequence (Q96NX5 23-277): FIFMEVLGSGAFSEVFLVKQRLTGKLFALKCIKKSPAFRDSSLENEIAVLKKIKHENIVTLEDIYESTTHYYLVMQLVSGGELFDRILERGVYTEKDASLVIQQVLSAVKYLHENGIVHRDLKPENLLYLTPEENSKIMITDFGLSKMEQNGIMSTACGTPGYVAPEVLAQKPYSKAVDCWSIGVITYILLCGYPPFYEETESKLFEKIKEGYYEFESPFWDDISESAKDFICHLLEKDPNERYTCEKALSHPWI

In the case of `CC(C)(C)OC(=O)NCCOCCOCCOCCOCCC(=O)N1CCN(c2cc(Nc3cc(C4CC4)[nH]n3)nc(Nc3ccc(CC#N)cc3)n2)CC1` [4-L], the ΔTm at 20 µM was 0.98 °C at CAMK1GA; -0.09 °C at CAMK2BA; 12 °C at CLK1; 4.19 °C on FESA; 5.77 °C on MAP2K6A; -0.18 °C on MAPK6. Moreover, the shift in melting temperature (ΔTm) at 20 µM at NEK1A was 0.45 °C; at STK10A it was 11.8 °C; on STK39A, 6.22 °C; at TLK1A, 3.45 °C; at TTK1A, 4.14 °C.
On to `CCOC(=O)c1cc(Nc2cc(C3CC3)[nH]n2)nc(Nc2ccc(CC#N)cc2)n1` [compound 5], for which the ΔTm at 20 µM on CAMK1GA is 1.53 °C; on CAMK2BA, 1.15 °C; on CLK1, 14.4 °C; at FESA, 3.17 °C; at MAP2K6A it was 8.41 °C; at MAPK6 it was -0.45 °C. Moreover, the ΔTm at 20 µM on NEK1A worked out at 0.62 °C; at STK10A, 9.37 °C; at STK39A, 5.53 °C; on TLK1A, 5.4 °C; on TTK1A, 4.46 °C.
On to `CC(C)(C)OC(=O)NCCCOCCOCCOCCCNC(=O)c1cc(Nc2cc(C3CC3)[nH]n2)nc(Nc2ccc(CC#N)cc2)n1` [5-L], for which the ΔTm at 20 µM on CAMK1GA amounted to 3.37 °C; at CAMK2BA it was 0.97 °C; at CLK1, 13.6 °C; on FESA, 2.67 °C; at MAP2K6A it was 5.96 °C; on MAPK6, 0.51 °C. The ΔTm at 20 µM at NEK1A was found to be 0.017 °C; on STK10A, 7.84 °C; at STK39A, 6.54 °C; on TLK1A, 4.52 °C; on TTK1A, 4.18 °C.
